Laboratory results: article PMC7561186, “Rational design of balanced dual-targeting antibiotics with limited resistance” (PLoS Biology, 2020)
In brackets after ≈: the same amount, converted by molar mass. Read-outs that look alike come from different tables or passages of the source.

Test system: S. aureus clinical isolates
Assay: microbe, parasite or virus in culture
Assay type: cell-based

Cc1[nH]c(C(=O)Nc2nc3ccc(C(=O)O)cc3s2)c(Cl)c1Cl [ULD1]
MIC (S. aureus ATCC 29213, MSSA / VSSA, test date 2018-10-25 (three repeat lines)): 1 µg/mL (≈ 2.7 µM) | MIC (Staphylococcus aureus, ATCC 29213 / MSSA, S. aureus ATCC 29213, MSSA / VSSA, test date 2018-10-25 (three repeat lines), read-out: MIC): 0.5 µg/mL (≈ 1.35 µM) | MIC (Staphylococcus aureus, ATCC 29213 / MSSA, S. aureus ATCC 29213, MSSA / VSSA, test date 2018-11-07, read-out: MIC): 0.25 µg/mL (≈ 0.675 µM) | MIC (Staphylococcus aureus, MRSA / NRS 3 / VISA, S. aureus IHMA 1308243, NRS3, MRSA / VISA, read-out: MIC): 1 µg/mL (≈ 2.7 µM) | MIC (Staphylococcus aureus, MRSA / NRS 4 / VISA, S. aureus IHMA 649380, NRS4, MRSA / VISA, read-out: MIC): 0.5 µg/mL (≈ 1.35 µM) | MIC (Staphylococcus aureus, MRSA / NRS 18 / VISA, S. aureus IHMA 649386, NRS18, MRSA / VISA, read-out: MIC): 0.5 µg/mL (≈ 1.35 µM) | MIC (Staphylococcus aureus, MRSA / NRS 19 / VISA, S. aureus IHMA 649387, NRS19, MRSA / VISA, read-out: MIC): 0.5 µg/mL (≈ 1.35 µM) | MIC (Staphylococcus aureus, MRSA / NRS 21 / VISA, S. aureus IHMA 649388, NRS21, MRSA / VISA, read-out: MIC): 1 µg/mL (≈ 2.7 µM) | MIC (Staphylococcus aureus, MRSA / NRS 22 / USA600 / VISA, S. aureus IHMA 649389, NRS22, MRSA / VISA, USA600, read-out: MIC): 0.5 µg/mL (≈ 1.35 µM) | MIC (Staphylococcus aureus, MRSA / NRS 23 / VISA, S. aureus IHMA 649390, NRS23, MRSA / VISA, read-out: MIC): 0.5 µg/mL (≈ 1.35 µM) | MIC (Staphylococcus aureus, MRSA / NRS 24 / VISA, S. aureus IHMA 649391, NRS24, MRSA / VISA, read-out: MIC): 0.5 µg/mL (≈ 1.35 µM) | MIC (Staphylococcus aureus, MRSA / NRS 26, S. aureus IHMA 649392, NRS26, MRSA / VSSA, read-out: MIC): 0.5 µg/mL (≈ 1.35 µM) | MIC (Staphylococcus aureus, MRSA / NRS 27 / VISA, S. aureus IHMA 1308248, NRS27, MRSA / VISA, read-out: MIC): 1 µg/mL (≈ 2.7 µM) | MIC (Staphylococcus aureus, MRSA / NRS 29 / VISA, S. aureus IHMA 1308250, NRS29, MRSA / VISA, read-out: MIC): 0.5 µg/mL (≈ 1.35 µM) | MIC (Staphylococcus aureus, MRSA / NRS 37 / VISA, S. aureus IHMA 1308251, NRS37, MRSA / VISA, read-out: MIC): 0.5 µg/mL (≈ 1.35 µM) | MIC (Staphylococcus aureus, MRSA / NRS 54, S. aureus IHMA 1308253, NRS54, MRSA / VSSA* (*Expected VAN intermediate, confirmed VAN susceptible twice), test date 2018-11-07, read-out: MIC): 0.25 µg/mL (≈ 0.675 µM) | MIC (Staphylococcus aureus, MRSA / NRS 56 / VISA, S. aureus IHMA 1308254, NRS56, MRSA / VISA, read-out: MIC): 0.5 µg/mL (≈ 1.35 µM) | MIC (Staphylococcus aureus, MRSA / USA100 / VRSA, S. aureus IHMA 672230, VRS1, MRSA / VRSA, USA100, read-out: MIC): 0.5 µg/mL (≈ 1.35 µM) | MIC (Staphylococcus aureus, MRSA / USA100 / VRSA, S. aureus IHMA 672231, VRS2, MRSA / VRSA, USA100, read-out: MIC): 0.5 µg/mL (≈ 1.35 µM) | MIC (Staphylococcus aureus, MRSA / USA100 / VRSA, S. aureus IHMA 672234, VRS4, MRSA / VRSA, USA100, read-out: MIC): 0.5 µg/mL (≈ 1.35 µM) | MIC (Staphylococcus aureus, MRSA / USA100 / VRSA, S. aureus IHMA 672235, VRS5, MRSA / VRSA, USA100, read-out: MIC): 1 µg/mL (≈ 2.7 µM) | MIC (Staphylococcus aureus, MRSA / USA100 / VRSA, S. aureus IHMA 672237, VRS7, MRSA / VRSA, USA100, read-out: MIC): 0.5 µg/mL (≈ 1.35 µM) | MIC (Staphylococcus aureus, MRSA / USA100 / VRSA, S. aureus IHMA 672238, VRS8, MRSA / VRSA, USA100, read-out: MIC): 0.5 µg/mL (≈ 1.35 µM) | MIC (Staphylococcus aureus, MRSA / USA100 / VRSA, S. aureus IHMA 672239, VRS9, MRSA / VRSA, USA100, read-out: MIC): 0.5 µg/mL (≈ 1.35 µM) | MIC (Staphylococcus aureus, MRSA / USA100 / VRSA, S. aureus IHMA 1308256, VRS10, MRSA / VRSA, USA100, read-out: MIC): 1 µg/mL (≈ 2.7 µM) | MIC (Staphylococcus aureus, MRSA / USA100 / VRSA, S. aureus IHMA 1308258, VRS11b, MRSA / VRSA, USA100, read-out: MIC): 0.5 µg/mL (≈ 1.35 µM) | MIC (Staphylococcus aureus, MRSA / USA800 / VRSA, S. aureus IHMA 672233, VRS3b, MRSA / VRSA, USA800, read-out: MIC): 0.25 µg/mL (≈ 0.675 µM) | MIC (Staphylococcus aureus, MRSA / VISA / VRSA, all isolates of the panel (MRSA, VISA, VRSA), read-out: MIC against all tested S. aureus clinical isolates): ≤ 1 µg/mL | MIC (Staphylococcus aureus, MRSA, S. aureus IHMA 1569509, MRSA / VSSA, read-out: MIC): 0.25 µg/mL (≈ 0.675 µM) | MIC (Staphylococcus aureus, MRSA, S. aureus IHMA 1575268, MRSA / VSSA, read-out: MIC): 1 µg/mL (≈ 2.7 µM) | MIC (Staphylococcus aureus, MRSA, S. aureus IHMA 1575629, MRSA / VSSA, read-out: MIC): 0.5 µg/mL (≈ 1.35 µM) | MIC (Staphylococcus aureus, MRSA, S. aureus IHMA 1577820, MRSA / VSSA, read-out: MIC): 1 µg/mL (≈ 2.7 µM) | MIC (Staphylococcus aureus, MRSA, S. aureus IHMA 1580300, MRSA / VSSA, read-out: MIC): 0.5 µg/mL (≈ 1.35 µM) | MIC (Staphylococcus aureus, MRSA, S. aureus IHMA 1580940, MRSA / VSSA, read-out: MIC): 0.5 µg/mL (≈ 1.35 µM) | MIC (Staphylococcus aureus, MRSA, S. aureus IHMA 1582100, MRSA / VSSA, read-out: MIC): 0.5 µg/mL (≈ 1.35 µM) | MIC (Staphylococcus aureus, MRSA, S. aureus IHMA 1583795, MRSA / VSSA, read-out: MIC): 1 µg/mL (≈ 2.7 µM) | MIC (Staphylococcus aureus, MRSA, S. aureus IHMA 1584223, MRSA / VSSA, read-out: MIC): 1 µg/mL (≈ 2.7 µM) | MIC (Staphylococcus aureus, MRSA, S. aureus IHMA 1585316, MRSA / VSSA, read-out: MIC): 0.25 µg/mL (≈ 0.675 µM) | MIC (Staphylococcus aureus, MRSA, S. aureus IHMA 1586780, MRSA / VSSA, read-out: MIC): 0.5 µg/mL (≈ 1.35 µM) | MIC (Staphylococcus aureus, MRSA, S. aureus IHMA 1587322, MRSA / VSSA, read-out: MIC): 0.5 µg/mL (≈ 1.35 µM) | MIC (Staphylococcus aureus, MRSA, S. aureus IHMA 1588127, MRSA / VSSA, read-out: MIC): 0.5 µg/mL (≈ 1.35 µM) | MIC (Staphylococcus aureus, MRSA, S. aureus IHMA 1591462, MRSA / VSSA, read-out: MIC): 0.25 µg/mL (≈ 0.675 µM) | MIC (Staphylococcus aureus, MRSA, S. aureus IHMA 1592755, MRSA / VSSA, read-out: MIC): 0.5 µg/mL (≈ 1.35 µM) | MIC (Staphylococcus aureus, MRSA, S. aureus IHMA 1592776, MRSA / VSSA, read-out: MIC): 0.5 µg/mL (≈ 1.35 µM) | MIC (Staphylococcus aureus, MRSA, S. aureus IHMA 1597106, MRSA / VSSA, read-out: MIC): 1 µg/mL (≈ 2.7 µM) | MIC (Staphylococcus aureus, MRSA, S. aureus IHMA 1602095, MRSA / VSSA, read-out: MIC): 0.5 µg/mL (≈ 1.35 µM) | MIC (Staphylococcus aureus, MRSA, S. aureus IHMA 1611170, MRSA / VSSA, read-out: MIC): 0.5 µg/mL (≈ 1.35 µM) | MIC (Staphylococcus aureus, MRSA, S. aureus IHMA 1611612, MRSA / VSSA, read-out: MIC): 0.5 µg/mL (≈ 1.35 µM) | MIC (Staphylococcus aureus, MRSA, S. aureus IHMA 1612228, MRSA / VSSA, read-out: MIC): 0.5 µg/mL (≈ 1.35 µM) | MIC (Staphylococcus aureus, MRSA, S. aureus IHMA 1620441, MRSA / VSSA, read-out: MIC): 0.5 µg/mL (≈ 1.35 µM) | MIC (Staphylococcus aureus, MRSA, S. aureus IHMA 1621638, MRSA / VSSA, read-out: MIC): 1 µg/mL (≈ 2.7 µM) | MIC (Staphylococcus aureus, MRSA, S. aureus IHMA 1622252, MRSA / VSSA, read-out: MIC): 1 µg/mL (≈ 2.7 µM) | MIC (Staphylococcus aureus, MRSA, S. aureus IHMA 1622527, MRSA / VSSA, read-out: MIC): 0.25 µg/mL (≈ 0.675 µM) | MIC (Staphylococcus aureus, MRSA, S. aureus IHMA 1666371, MRSA / VSSA, read-out: MIC): 0.5 µg/mL (≈ 1.35 µM) | MIC (Staphylococcus aureus, MRSA, S. aureus IHMA 1695391, MRSA / VSSA, read-out: MIC): 0.25 µg/mL (≈ 0.675 µM)
